# Measured values published in publication PMC5627750 (International Journal of Nanomedicine, 2017).
# Experiments:
# [1] = format: physicochemical; details: pH 7.4
# [2] = in vivo; details: male, Sprague-Dawley, rat, iv, 10 mg
# [3] = male, Sprague-Dawley, rat, in vivo, 10 mg/kg
# [4] = test system: MI rat models; design: species or system Sprague-Dawley rats; details: in vivo, iv, 10 mg/kg
smiles,measurement,setting,value
"COc1cc2c(c(OC)c1OC)-c1c(cc3c(c1OC)OCO3)CC(C)C(C)C2 (centres unmarked) [Sch B solution, Schisandrin B]",time to complete release of Sch B,[1],≤ 2 h
same,AUC(0-inf),[2],13700 ± 1540 ng·h/mL
same,AUC(0-t),[2],12400 ± 1310 ng·h/mL
same,Vd,[2],18.5 ± 2.61 L/kg
same,clearance,[2],65.7 mL/min/kg
same,half-life,[2],55.8 ± 5.4 min
same,time until cleared from the circulation,[3],≤ 4 h
same,infarct size,[4],36.5%
